Columns and labels:
[1] = Dye duration (lifetime before bleaching); format: physicochemical
Experimental: and wherein the colour indicator comprises a first non-mordant dye having a first colour and being bleachable after a first dye lifetime of 0.5 to 10 minutes in a test solution at 20° C. to 40° C. and pH8.0 to 8.5 containing 0.05 wt % to 0.15 wt % of the dye and 45 wt % to 55 wt % of sodium percarbonate;
a second non-mordant dye having a second colour different from the first colour and bleachable after a second dye lifetime of not less than 24 hours in the test solution; and
an optional third non-mordant dye having a third colour different from the first and second colours and bleachable after a third dye lifetime of not less than 36 hours in the test solution.

spores [2] = settings: background statement; cited from earlier work
spores [3] = assay: Sporocidal action of peracetic acid (general statements); format: cell-based

| Structure (SMILES) | DURATION [1] [min] | Concentration at which sporocidal (spores [2]) [ppm] | Concentration sufficient to provide sporicidal action (spores [3]) |
| --- | --- | --- | --- |
| O=S(=O)(O)c1cc(S(=O)(=O)O)c2c(/N=N\c3ccc(S(=O)(=O)O)c4ccccc34)c(O)ccc2c1 [Acid Red 18] | 30 | – | – |
| Cc1ccc(Nc2ccc(O)c3c2C(=O)c2ccccc2C3=O)c(S(=O)(=O)[O-])c1.[Na+] [Acid Violet 43] | 5 | – | – |
| CC(=O)OO [Peracetic acid] | – | 4000 | approximately 1000 ppm |

— patent US10660338B2, “Sporocidal disinfectant or sanitising composition” (priority 2014, dated 2020)
